This note sets out measurements from patent publication US20240132498A1, “CRYSTALLINE FORMS OF 5-(3,4-DIFLUOROBENZYL)-8-((1R,4R)-4-METHYLCYCLOHEXYL)-6,9-DIOXO-2,5,8-TRIAZASPIRO[3.5]NONANE-2-CARBALDEHYDE” (Cytokinetics, Incorporated, priority 2022, published 2024).

Series [1] can be described thus: Rat single dose pharmacokinetics. The following applies: male, plasma, iv, Sprague Dawley rats; for Vd: read-out: Vss. The class given is in vivo. As for the experimental part:
Male Sprague Dawley rats were obtained from Zhejiang Vital River Laboratory Animal Technology Co., Ltd. The animals in IV group had free access to water and food. The animals in PO group were fasted overnight before dosing and provided with food 2 hours post dosing. The IV dose solution was prepared in 10% DMA/50% PG/40% HPOCD solution (40% w/v aqueous HPOCD) at a concentration of 1 mg/mL. The oral dosing suspension was prepared by suspending Test Article in 0.5% HPMC/0.1% Tween 80 in water at a concentration 0.2 mg/mL. Concentrations of IV and PO doses were measured at the end of the study. Pharmacokinetic parameters were calculated using the nominal dose values if the measured values were within 20% of the nominal values. Three rats were dosed IV via a bolus injection via caudal vein. Three rats per dose group were dosed by oral gavage. Blood samples were collected from the jugular vein cannula at predose, 5 (IV only),15, 30 minutes, and 1, 2, 4, 6, and 24 hours post-dose. Blood volumes were replaced with an equal amount of sterile 0.9% saline. Blood samples were centrifuged and the collected plasma was stored at −80° C. for subsequent analysis. Plasma samples were analyzed for Test Article concentrations using a LC/MS/MS method. Briefly, a 50 μL aliquot of each plasma sample was mixed with 100 μL of acetonitrile that contained an internal standard. The mixture was vortexed and centrifuged. Ten (10) μL of the resulting solution was injected onto a reverse-phase C18 column and the resultant peaks detected on a LC/MS/MS equipped with a turbo ionspray ionization source. Sample concentrations below the limit of quantification (BLQ) were treated as zero for pharmacokinetic calculations. Pharmacokinetic parameters were estimated from individual animals using noncompartmental analysis of the concentration-time data (Phoenix WinNonLin software, version 64; Pharsight, Mountain View, CA). The elimination rate constant (k) was calculated as the absolute value of the slope of the linear regression of logarithm (log) of the concentration versus time for the last three data points of the concentration-time profiles. Apparent elimination half-life (t1/2) values were calculated as In(2)/k. Area under the concentration-time curve (AUC) values were estimated using linear trapezoidal method. AUC values were calculated from the dosing time to the last measurable concentration. AUC∞ values were calculated as the sum of the corresponding AUC and the ratio of the last detectable concentration divided by k (AUCt-∞). Plasma clearance (CL) was calculated from Dose/AUC∞. Mean resident time (MRT) was estimated by moment analysis. Volume of distribution at steady state (Vss) was calculated from MRT∞×CL. Maximum concentration (Cmax) and time to reach Cmax (tmax) were recorded as observed. Bioavailability was calculated from the ratio of dose normalized AUC∞,po of individual rats/mean dAUC∞,iv×100% where dAUC was the dose normalized AUC value. Compounds tested were prepared in accordance with the synthetic procedures described herein.

In series [2] the target is T1, bovine cardiac myofibrils (Bos taurus, UniProt Q9BE39).
T1 construct: full-length cardiac myosin in the context of the native sarcomere; from tissue; host or cells: bovine cardiac left ventricular tissue, detergent-skinned myofibrils
T1 sequence (Q9BE39 whole entry): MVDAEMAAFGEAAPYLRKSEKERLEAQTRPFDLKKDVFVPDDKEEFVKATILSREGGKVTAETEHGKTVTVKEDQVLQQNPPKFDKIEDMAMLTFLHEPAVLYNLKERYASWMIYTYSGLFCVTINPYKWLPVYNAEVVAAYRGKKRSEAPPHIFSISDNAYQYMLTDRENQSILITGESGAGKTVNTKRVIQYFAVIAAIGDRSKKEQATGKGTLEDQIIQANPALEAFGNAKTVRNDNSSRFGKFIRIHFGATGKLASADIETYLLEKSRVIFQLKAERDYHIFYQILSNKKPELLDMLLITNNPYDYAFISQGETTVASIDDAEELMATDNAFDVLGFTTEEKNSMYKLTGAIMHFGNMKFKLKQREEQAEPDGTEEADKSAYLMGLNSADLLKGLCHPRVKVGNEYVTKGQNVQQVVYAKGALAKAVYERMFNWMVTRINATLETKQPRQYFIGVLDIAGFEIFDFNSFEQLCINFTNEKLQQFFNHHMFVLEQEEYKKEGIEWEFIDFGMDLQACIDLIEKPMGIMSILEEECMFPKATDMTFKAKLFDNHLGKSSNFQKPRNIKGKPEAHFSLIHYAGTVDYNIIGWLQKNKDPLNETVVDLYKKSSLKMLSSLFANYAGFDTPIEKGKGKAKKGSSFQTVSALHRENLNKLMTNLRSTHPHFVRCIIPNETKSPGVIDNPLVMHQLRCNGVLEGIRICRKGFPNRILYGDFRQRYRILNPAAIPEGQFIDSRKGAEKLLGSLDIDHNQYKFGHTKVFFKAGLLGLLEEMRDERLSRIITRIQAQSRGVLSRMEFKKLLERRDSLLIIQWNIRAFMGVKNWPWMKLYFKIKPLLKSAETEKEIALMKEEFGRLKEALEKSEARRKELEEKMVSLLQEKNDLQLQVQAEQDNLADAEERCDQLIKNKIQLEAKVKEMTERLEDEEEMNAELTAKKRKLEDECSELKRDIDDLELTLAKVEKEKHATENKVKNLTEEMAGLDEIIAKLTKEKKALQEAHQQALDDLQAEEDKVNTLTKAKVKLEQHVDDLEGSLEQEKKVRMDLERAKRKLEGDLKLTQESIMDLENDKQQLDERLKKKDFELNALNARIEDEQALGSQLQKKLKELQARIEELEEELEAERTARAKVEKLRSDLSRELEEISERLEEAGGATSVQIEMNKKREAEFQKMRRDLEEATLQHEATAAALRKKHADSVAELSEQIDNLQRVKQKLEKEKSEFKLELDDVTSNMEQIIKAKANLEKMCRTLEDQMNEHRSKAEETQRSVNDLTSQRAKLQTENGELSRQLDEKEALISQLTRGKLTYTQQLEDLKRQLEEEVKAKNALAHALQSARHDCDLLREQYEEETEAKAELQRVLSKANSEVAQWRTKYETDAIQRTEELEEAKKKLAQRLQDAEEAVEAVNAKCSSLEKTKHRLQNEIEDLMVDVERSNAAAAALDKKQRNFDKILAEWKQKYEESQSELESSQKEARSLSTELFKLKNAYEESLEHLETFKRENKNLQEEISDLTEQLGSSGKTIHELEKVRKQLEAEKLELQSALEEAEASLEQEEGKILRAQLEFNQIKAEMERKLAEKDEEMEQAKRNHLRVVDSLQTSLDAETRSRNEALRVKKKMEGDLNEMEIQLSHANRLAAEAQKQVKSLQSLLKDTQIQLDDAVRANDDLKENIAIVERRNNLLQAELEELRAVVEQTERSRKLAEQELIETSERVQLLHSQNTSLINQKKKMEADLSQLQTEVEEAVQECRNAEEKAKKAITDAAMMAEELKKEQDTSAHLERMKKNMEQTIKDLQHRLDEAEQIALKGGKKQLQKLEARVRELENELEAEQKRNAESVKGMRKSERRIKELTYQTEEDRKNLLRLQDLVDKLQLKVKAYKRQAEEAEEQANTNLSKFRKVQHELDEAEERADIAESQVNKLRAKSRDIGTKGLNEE
T1 sequence (P85100 whole entry partner): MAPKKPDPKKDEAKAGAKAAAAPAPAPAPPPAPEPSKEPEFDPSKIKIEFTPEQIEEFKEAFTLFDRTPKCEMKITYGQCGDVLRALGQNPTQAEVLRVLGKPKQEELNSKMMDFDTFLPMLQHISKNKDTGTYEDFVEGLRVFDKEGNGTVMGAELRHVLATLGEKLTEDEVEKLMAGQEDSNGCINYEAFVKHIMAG
T1 sequence (Q3SZE5 whole entry partner): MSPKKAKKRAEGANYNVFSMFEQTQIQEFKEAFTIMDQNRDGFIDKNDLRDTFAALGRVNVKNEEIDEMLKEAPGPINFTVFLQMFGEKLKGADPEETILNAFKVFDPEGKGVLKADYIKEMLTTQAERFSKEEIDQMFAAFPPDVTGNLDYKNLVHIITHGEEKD
The experiment in a line: Skinned bovine cardiac myofibril ATPase assay (PK/LDH-coupled). Type of series: biochemical. Particulars: bovine cardiac myofibril ATPase activity; Ca2+ for 50% or 75% activation. As for the experimental part: To evaluate the effect of the compound 5-(3,4-difluorobenzyl)-8-((1r,4r)-4-methylcyclohexyl)-6,9-dioxo-2,5,8-triazaspiro[3.5]nonane-2-carbaldehyde on the ATPase activity of full-length cardiac myosin in the context of the native sarcomere, skinned myofibril assays were performed. Bovine cardiac myofibrils were obtained by homogenizing bovine cardiac left ventricular tissue in the presence of a detergent such as triton X-100. Such treatment removes membranes and a majority of the soluble cytoplasmic proteins but leaves intact the cardiac sarcomeric acto-myosin apparatus. Myofibril preparations retain the ability to hydrolyze ATP in a Ca^2+ regulated manner. ATPase activities of such myofibril preparations in the presence and absence of the compound 5-(3,4-difluorobenzyl)-8-((1r,4r)-4-methylcyclohexyl)-6,9-dioxo-2,5,8-triazaspiro[3.5]nonane-2-carbaldehyde was assayed at Ca^2+ concentrations activating to a defined fraction of the maximal rate (i.e., […], 75%). The compound 5-(3,4-difluorobenzyl)-8-((1r,4r)-4-methylcyclohexyl)-6,9-dioxo-2,5, 8-triazaspiro [3.5]nonane-2-carbaldehyde was assessed for its ability to inhibit the steady-state ATPase activity of bovine cardiac myofibrils using pyruvate kinase and lactate dehydrogenase (PK/LDH)-coupled enzyme system. This assay regenerates myosin-produced ADP into ATP by oxidizing NADH, producing an absorbance change at 340 nm. Prior to testing this compound, the bovine cardiac myofibrils were assessed for their calcium responsiveness and the calcium concentration that achieves either a 50% (pCa50) or 75% (pCa75) activation of the myofibril system was chosen as the final condition for assessing the inhibitory activity of this compound. All enzymatic activity was measured in a buffered solution containing 12 mM PIPES (piperazine-N,N′-bis(2-ethanesulfonic acid), 2 mM magnesium chloride at pH 6.8 (PM 12 buffer). Final assay conditions were 1 mg/mL of bovine cardiac myofibrils, 4 U/mL pyruvate kinase, 6 U/mL lactate dehydrogenase, 50 μM ATP, 0.1 mg/mL BSA (bovine serum albumin), 10 ppm antifoam, 1 mM DTT, 0.5 mM NADH, 1.5 mM PEP, 0.6 mM EGTA, and an amount of CaCl2) sufficient to achieve either 50% or 75% activation of the myofibril ATPase activity. The compound tested was prepared in accordance with the synthetic procedures described herein.

In the case of `O=CN1CC2(C1)C(=O)N(c1ccc(F)cc1F)CC(=O)N2Cc1ccc(Cl)cc1` [Comparator A, 5-(4-chlorobenzyl)-8-(2,4-difluorophenyl)-6,9-dioxo-2,5,8-triazaspiro[3.5]nonane-2-carbaldehyde], in series [1], the clearance was 29.6 mL/min/kg, the half-life is 6.48 h and the Vd worked out at 15.1 L/kg. Moreover, the “CDMF IC15” value in series [2] worked out at 1800 nM.
Take `O=C1[C@H](C2COC2)N(Cc2ccc(C(F)(F)F)cc2)C(=O)CN1c1ncc(Cl)cc1F` [Comparator C, (S)-1-(5-chloro-3-fluoropyridin-2-yl)-3-(oxetan-3-yl)-4-(4-(trifluoromethyl)benzyl)piperazine-2,5-dione, reference compound]: in series [1], the clearance came out at 20.2 mL/min/kg, the half-life was 3.3 h and the Vd was 5.2 L/kg. Also, the “CDMF IC15” value in series [2] amounted to 1100 nM.
As to `CC(=O)N1CC2(C1)C(=O)N(c1ccc(C#N)cc1F)CC(=O)N2Cc1ccc(C(F)(F)F)cc1` [Comparator D, 4-(2-acetyl-6,9-dioxo-5-(4-(trifluoromethyl)benzyl)-2,5,8-triazaspiro[3.5]nonan-8-yl)-3-fluorobenzonitrile], in series [1], the clearance is 8.23 mL/min/kg, the half-life was 4.84 h and the Vd was determined as 2.98 L/kg. Also, the “CDMF IC15” value in series [2] worked out at 1100 nM.
Turning to `O=CN1CC2(C1)C(=O)N([C@H]1CC[C@H](C(F)F)CC1)CC(=O)N2Cc1ccc(C(F)(F)F)cc1` [Comparator E, 8-((1r,4r)-4-(difluoromethyl)cyclohexyl)-6,9-dioxo-5-(4-(trifluoromethyl)benzyl)-2,5,8-triazaspiro[3.5]nonane-2-carbaldehyde], in series [1], the clearance came to 18.8 mL/min/kg, the half-life is 5.4 h and the Vd is 8.23 L/kg. Further, the “CDMF IC15” value in series [2] was 1300 nM.
The like results for `C[C@H]1CC[C@H](N2CC(=O)N(Cc3ccc(F)c(F)c3)C3(CN(C=O)C3)C2=O)CC1` [Compound 1, 5-(3,4-difluorobenzyl)-8-((1r,4r)-4-methylcyclohexyl)-6,9-dioxo-2,5,8-triazaspiro[3.5]nonane-2-carbaldehyde] were, in that order, 52.6 mL/min/kg, 3.34 h, 13 L/kg and 1500 nM.
